Measured values: article PMC9500845, “New Anticancer Theobromine Derivative Targeting EGFR^WT and EGFR^T790M: Design, Semi-Synthesis, In Silico, and In Vitro Anticancer Studies” (Molecules, 2022)
pIC50: −log10 of the molar value.

Target: EGFR (Homo sapiens, UniProt P00533)
Assay: in vitro EGFR enzyme inhibition, Human EGFR ELISA kit
Assay type: biochemical

Chain of EGFR (P00533 25-1210): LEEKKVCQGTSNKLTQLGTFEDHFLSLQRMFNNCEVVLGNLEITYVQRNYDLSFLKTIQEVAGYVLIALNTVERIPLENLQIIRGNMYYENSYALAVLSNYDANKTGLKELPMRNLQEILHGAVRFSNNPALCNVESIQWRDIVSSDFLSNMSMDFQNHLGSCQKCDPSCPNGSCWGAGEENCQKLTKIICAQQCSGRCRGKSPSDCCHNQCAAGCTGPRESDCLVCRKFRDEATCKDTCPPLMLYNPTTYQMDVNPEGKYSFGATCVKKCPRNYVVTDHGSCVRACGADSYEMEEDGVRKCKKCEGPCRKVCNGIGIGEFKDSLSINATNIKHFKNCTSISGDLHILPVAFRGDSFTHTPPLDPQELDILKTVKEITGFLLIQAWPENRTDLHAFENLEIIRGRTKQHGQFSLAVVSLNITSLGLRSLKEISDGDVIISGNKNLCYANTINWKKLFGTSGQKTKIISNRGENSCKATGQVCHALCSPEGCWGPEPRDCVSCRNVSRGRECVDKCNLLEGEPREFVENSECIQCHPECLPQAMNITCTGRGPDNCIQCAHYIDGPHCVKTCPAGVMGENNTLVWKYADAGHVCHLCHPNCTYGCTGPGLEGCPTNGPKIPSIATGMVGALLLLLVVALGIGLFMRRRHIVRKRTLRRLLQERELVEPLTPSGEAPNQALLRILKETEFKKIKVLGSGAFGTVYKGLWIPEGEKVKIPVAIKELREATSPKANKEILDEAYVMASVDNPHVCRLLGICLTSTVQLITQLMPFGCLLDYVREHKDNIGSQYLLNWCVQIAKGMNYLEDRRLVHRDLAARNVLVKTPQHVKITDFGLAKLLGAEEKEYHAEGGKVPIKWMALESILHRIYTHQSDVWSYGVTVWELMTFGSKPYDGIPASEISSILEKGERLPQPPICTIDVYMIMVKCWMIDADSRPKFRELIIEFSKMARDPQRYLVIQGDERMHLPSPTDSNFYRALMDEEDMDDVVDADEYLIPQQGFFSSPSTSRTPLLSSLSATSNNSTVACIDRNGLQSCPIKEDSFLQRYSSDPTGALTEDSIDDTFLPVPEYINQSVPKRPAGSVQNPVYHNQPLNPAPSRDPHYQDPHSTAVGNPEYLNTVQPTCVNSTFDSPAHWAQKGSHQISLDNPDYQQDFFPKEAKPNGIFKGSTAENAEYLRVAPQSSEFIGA

## Cn1cnc2c1c(=O)n(CC(=O)NCc1ccccc1)c(=O)n2C [XI, N-Benzyl-2-(3,7-dimethyl-2,6-dioxo-2,3,6,7-tetrahydro-1H-purin-1-yl)acetamide]
  pIC50: 7.76
